This passage reports IC50 and kinact/KI results from paper PMC9865645, “The Impact of N^ε-Acryloyllysine Piperazides on the Conformational Dynamics of Transglutaminase 2” (International Journal of Molecular Sciences, 2023).

Test [1] has as its target T1, in-house produced N-terminally Twin-Strep-tagged hTGase 2 (Homo sapiens, UniProt P21980).
T1 construct: thrombin cleavage site (N); made in house; host or cells: E. coli BL21(DE3)
T1 sequence (P21980 1-687): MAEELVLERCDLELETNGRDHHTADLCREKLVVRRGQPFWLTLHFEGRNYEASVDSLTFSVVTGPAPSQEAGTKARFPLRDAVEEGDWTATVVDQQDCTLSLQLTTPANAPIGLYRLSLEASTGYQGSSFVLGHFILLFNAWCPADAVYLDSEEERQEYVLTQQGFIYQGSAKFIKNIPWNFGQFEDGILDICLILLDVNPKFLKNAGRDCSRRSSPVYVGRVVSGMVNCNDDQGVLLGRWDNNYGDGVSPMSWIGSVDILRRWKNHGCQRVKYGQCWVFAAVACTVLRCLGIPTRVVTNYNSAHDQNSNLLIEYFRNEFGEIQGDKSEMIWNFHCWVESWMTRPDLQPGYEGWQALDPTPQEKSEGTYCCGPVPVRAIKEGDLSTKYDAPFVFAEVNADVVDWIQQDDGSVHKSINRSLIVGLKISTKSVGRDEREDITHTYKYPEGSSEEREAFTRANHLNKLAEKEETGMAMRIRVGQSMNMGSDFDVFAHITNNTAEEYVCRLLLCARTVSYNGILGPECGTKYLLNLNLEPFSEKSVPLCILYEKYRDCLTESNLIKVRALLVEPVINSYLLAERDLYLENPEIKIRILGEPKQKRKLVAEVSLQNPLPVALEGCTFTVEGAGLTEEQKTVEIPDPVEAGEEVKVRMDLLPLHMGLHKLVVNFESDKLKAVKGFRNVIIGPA
Briefly: fluorescence anisotropy (FA)-based transamidase activity assay, in-house Twin-Strep-tagged hTGase 2. Type of test: biochemical. The text has this: The gene of hTGase 2 (Uniprot ID: P21980) with an N-terminal thrombin cleavage site was cloned into the pPSG-IBA105 vector containing the sequence for an N-terminal Twin-Strep-tag (IBA Lifesciences GmbH, Göttingen, Germany) to obtain the final plasmid pPSG-IBA105/TCS-hTGase 2. The plasmid construct was verified by DNA sequencing (Eurofins Genomics Germany GmbH) and then transformed into E. coli BL21(DE3) by the heat–shock method. hTGase 2-expressing E. coli cells were lysed by lysozyme treatment, and hTGase 2 was purified by affinity chromatography on an ÄKTA purifier UPC 10 FPLC equipped with a Strep-Tactin XT cartridge (GE Healthcare Europe GmbH, Freiburg, Germany). Identity and purity of self-produced hTGase 2 were verified by SDS-PAGE and Western Blot analysis, respectively. Protein concentration was determined according to Bradford. More detailed descriptions of the generation and characterization of the final plasmid construct pPSG-IBA105/TCS-hTGase 2 and the expression, purification, and characterization of the self-produced hTGase 2 protein will be published elsewhere (manuscript in preparation).
For the analysis of inhibitor 1 on self-produced hTGase 2, 2 µg/mL of the enzyme was used to guarantee comparability with the value reported by Wodtke et al., whereas all other experiments were performed with 5 µg/mL of either commercial or self-produced hTGase 2 (corresponding to 64.1 and 61.6 nM, respectively, when assuming 100% active protein). Parallel and perpendicular fluorescence intensities were measured over 1190 s in 35 s intervals (1) or over 1776 s in 48 s intervals (2, 3) and used to calculate the FA. Data of FA for the first 875 s (1) or 384 s (2, 3) were analyzed by linear regression, with slopes corresponding to enzymatic rates. Rates in the presence of inhibitor were normalized by dividing them by the respective rate in the absence of inhibitor, and normalized rates were analyzed according to Equation (S29) in Supplementary Materials to calculate values of IC50. Data analysis was performed with Microsoft Excel (Microsoft Office Professional Plus 2016, Microsoft® Corporation, USA) and GraphPad Prism version 5.03 or version 6.07 for Windows (GraphPad Software, La Jolla, CA, USA).

The target of a further test is T2, His6-hTGase 2 (Homo sapiens, UniProt P21980).
T2 construct: purchased Zedira (Darmstadt, Germany) T022, lot 0716a
T2 sequence (P21980 1-687): T1 sequence (P21980 1-687)
Briefly: fluorimetric activity assay (substrate Z-Glu(HMC)-Gly-OH) for kinact/KI. The format is biochemical. The note with it: mean (SEM) of two to four experiments.

Molecules are shown by their SMILES.

Consider `C=CC(=O)NCCCC[C@H](NC(=O)Cc1ccccc1I)C(=O)N1CCN(c2ccc([N+](=O)[O-])nc2)CC1` [Compound 2, N^α-(2-Iodophenylacetyl)-N^ε-acryloyl-L-lysin-4-(2-nitropyridin-5-yl)piperazide], for which the IC50 (as a rule, the concentration that gives 50% inhibition) amounted to 116 nM in test [1] (5 min pre-incubation of enzyme and inhibitor, mean (SEM) of three experiments); 35.2 nM in test [1] (30 min pre-incubation, hTGase 2 (in-house) 61.6 nM, mean (SEM)). In addition, the kinact/KI (commonly the second-order rate constant of inactivation) on His6-hTGase 2 was 8340 M⁻¹ s⁻¹.
